Measurements as given in PMC8887546, “Design and Synthesis of Brain Penetrant Glycopeptide Analogues of PACAP With Neuroprotective Potential for Traumatic Brain Injury and Parkinsonism” (Frontiers in drug discovery, 2022).

What was measured:
Type in all cases: cell-based
human PAC1 receptor = target: T1, human PAC1 receptor (Homo sapiens, UniProt P41586); assay: cAMP stimulation in CHO cells expressing PAC1; conditions: for Emax: CHO
T1 construct: expressed in transfected cells; host or cells: CHO cells (G418 selection)
T1 sequence (P41586 21-468): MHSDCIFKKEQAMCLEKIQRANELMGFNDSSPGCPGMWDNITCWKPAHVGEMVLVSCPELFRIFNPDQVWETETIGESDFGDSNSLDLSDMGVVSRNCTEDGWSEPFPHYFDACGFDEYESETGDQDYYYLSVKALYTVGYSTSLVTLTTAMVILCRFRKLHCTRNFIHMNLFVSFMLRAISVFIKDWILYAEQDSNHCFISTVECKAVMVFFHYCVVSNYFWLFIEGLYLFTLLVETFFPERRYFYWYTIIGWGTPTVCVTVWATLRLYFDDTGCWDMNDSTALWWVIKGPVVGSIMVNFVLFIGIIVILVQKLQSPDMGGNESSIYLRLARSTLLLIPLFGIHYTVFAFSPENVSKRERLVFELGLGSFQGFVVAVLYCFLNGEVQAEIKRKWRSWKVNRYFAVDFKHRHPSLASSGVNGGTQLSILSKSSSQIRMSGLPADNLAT
How it was run: (§1)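 Serum-starved CHO cells expressing human receptors were pre-treated 20 min with 500 μM IBMX, then exposed to agonist concentration curves for 10 min in 500 μM IBMX. cAMP quantified by competition with bovine PKA and ^3H-cAMP (1 h, room temperature), scintillation read.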

human VPAC1 receptor = target: T2, human VPAC1 receptor (Homo sapiens, UniProt P32241); assay: cAMP stimulation in CHO cells expressing VPAC1; conditions: for Emax: CHO, read-out: VPAC1 Emax; for EC50: read-out: VPAC1 EC50
T2 construct: expressed in transfected cells; host or cells: CHO cells (G418 selection)
T2 sequence (P32241 31-457): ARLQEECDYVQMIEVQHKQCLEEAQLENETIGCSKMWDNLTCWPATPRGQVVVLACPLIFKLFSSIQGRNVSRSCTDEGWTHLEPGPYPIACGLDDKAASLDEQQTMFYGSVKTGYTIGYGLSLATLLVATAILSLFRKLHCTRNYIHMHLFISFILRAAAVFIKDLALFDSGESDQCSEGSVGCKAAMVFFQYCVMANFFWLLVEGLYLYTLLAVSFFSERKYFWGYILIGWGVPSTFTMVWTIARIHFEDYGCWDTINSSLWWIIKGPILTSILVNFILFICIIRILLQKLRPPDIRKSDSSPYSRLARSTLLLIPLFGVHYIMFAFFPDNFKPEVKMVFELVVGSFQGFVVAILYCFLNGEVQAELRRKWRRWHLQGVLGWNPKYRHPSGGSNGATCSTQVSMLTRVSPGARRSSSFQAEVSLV

human VPAC2 receptor = target: T3, human VPAC2 receptor (Homo sapiens, UniProt P41587); assay: cAMP stimulation in CHO cells expressing VPAC2; conditions: for Emax: CHO
T3 construct: expressed in transfected cells; host or cells: CHO cells (G418 selection)
T3 sequence (P41587 24-438): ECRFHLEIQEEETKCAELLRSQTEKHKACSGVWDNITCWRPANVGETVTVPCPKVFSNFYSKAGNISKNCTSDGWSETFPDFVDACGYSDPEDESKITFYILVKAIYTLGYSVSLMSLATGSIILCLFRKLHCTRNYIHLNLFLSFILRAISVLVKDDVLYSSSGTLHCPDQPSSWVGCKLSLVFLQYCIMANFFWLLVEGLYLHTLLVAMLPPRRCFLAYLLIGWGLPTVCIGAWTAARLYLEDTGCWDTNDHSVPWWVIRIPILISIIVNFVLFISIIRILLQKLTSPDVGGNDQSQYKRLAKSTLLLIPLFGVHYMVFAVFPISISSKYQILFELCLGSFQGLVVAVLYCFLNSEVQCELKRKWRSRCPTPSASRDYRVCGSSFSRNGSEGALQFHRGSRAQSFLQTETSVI
How it was run: as §1

Structure (SMILES) | EC50 (human PAC1 receptor) [nM] | Emax (human PAC1 receptor) [%] | Emax (human VPAC1 receptor) [%] | Receptor selectivity ratio VPAC1/PAC1 (human VPAC1 receptor; ratio of cAMP EC50 values) | EC50 (human VPAC1 receptor) [nM] | EC50 (human VPAC2 receptor) [nM] | Emax (human VPAC2 receptor) [%] | Receptor selectivity ratio VPAC2/PAC1 (human VPAC2 receptor; ratio of cAMP EC50 values) | Receptor selectivity ratio VPAC2/VPAC1 (human VPAC2 receptor; ratio of cAMP EC50 values)
CC[C@H](C)[C@H](NC(=O)CNC(=O)[C@H](CC(=O)O)NC(=O)[C@H](CO)NC(=O)[C@@H](N)Cc1c[nH]cn1)C(=O)N[C@@H](Cc1ccccc1)C(=O)N[C@H](C(=O)N[C@@H](CC(=O)O)C(=O)N[C@@H](CO)C(=O)N[C@@H](Cc1ccc(O)cc1)C(=O)N[C@@H](CO)C(=O)N[C@@H](CCCNC(=N)N)C(=O)N[C@@H](Cc1ccc(O)cc1)C(=O)N[C@@H](CCCNC(=N)N)C(=O)N[C@@H](CCCCN)C(=O)N[C@@H](CCC(N)=O)C(=O)N[C@@H](CC(C)C)C(=O)N[C@@H](C)C(=O)N[C@H](C(=O)N[C@@H](CCCCN)C(=O)N[C@@H](CCCCN)C(=O)N[C@@H](Cc1ccc(O)cc1)C(=O)N[C@@H](CC(C)C)C(=O)N[C@@H](C)C(=O)N[C@@H](C)C(=O)N[C@H](C(=O)N[C@@H](CC(C)C)C(=O)N[C@@H](CO[C@@H]1O[C@H](CO[C@H]2O[C@H](CO)[C@H](O)[C@H](O)[C@H]2O)[C@@H](O)[C@H](O)[C@H]1O)C(N)=O)C(C)C)C(C)C)[C@@H](C)O [Compound 2LS98Mel] | 0.57 | 99 | 102 | 0.96 | 0.55 | 9.4 | 86 | 16.49 | 17.09
CCC[C@H](NC(=O)[C@H](CCC(N)=O)NC(=O)[C@H](CCCCN)NC(=O)[C@H](CCCNC(=N)N)NC(=O)[C@H](Cc1ccc(O)cc1)NC(=O)[C@H](CCCNC(=N)N)NC(=O)[C@H](CO)NC(=O)[C@H](Cc1ccc(O)cc1)NC(=O)[C@H](CO)NC(=O)[C@H](CC(=O)O)NC(=O)[C@@H](NC(=O)[C@H](Cc1ccccc1)NC(=O)[C@@H](CCC)NC(=O)CNC(=O)[C@H](CC(=O)O)NC(=O)[C@@H](CO)NC(=O)[C@H](Cc1c[nH]cn1)NC(C)=O)[C@@H](C)O)C(=O)N[C@@H](C)C(=O)N[C@H](C(=O)N[C@@H](CCCCN)C(=O)N[C@@H](CCCCN)C(=O)N[C@@H](Cc1ccc(O)cc1)C(=O)N[C@@H](CC(C)C)C(=O)N[C@@H](C)C(=O)N[C@@H](C)C(=O)N[C@H](C(=O)N[C@@H](CC(C)C)C(=O)N[C@@H](CO[C@@H]1O[C@H](CO)[C@@H](O)[C@H](O)[C@H]1O)C(N)=O)C(C)C)C(C)C [Ac-CRA 3020] | > 2500 | 61 | 36 | – | 244 | > 2500 | 71 | – | –
